Entries after “also recorded” stand apart in the source; their conditions may differ.
Key:
N-acyl-L-proline acylase [1] = experiment: Inducers of N-acyl-L-proline acylase, resting cells tested against N-Z-L-proline and N-Z-D-proline; format: cell-based, Arthrobacter sp. HSZ5; conditions: for Induction of the enzymatic activity (N-acyl-L-proline acylase): 1 g/l added to minimal medium with fructose 5 g/l and L-glutamate 2 g/l, proline detected by HPLC
Experimental: Arthrobacter sp. HSZ5 was grown in minimal medium (Example 1) using fructose (5 g/l) as the C source and L-glutamate (2 g/l) as the N source.

[2] = test system: N-acyl-L-proline acylase of Arthrobacter sp. HSZ5; experiment: Effect of product inhibition on the activity of the N-acyl-L-proline acylase; format: cell-based; conditions: for Inhibition of the enzymatic activity of N-acyl-L-proline acylase: cells pre-incubated 30 minutes (30° C., pH 6.4) with product, then 30° C., pH 6.5, 50 g/l N-Z-L-proline; for Manner of inhibition: from dependence of inhibition on concentration
Experimental: Arthrobacter sp. HSZ5 was grown (30° C., 120 rpm) in the medium described in Table 1 using fructose (5 […]) as the C or N source. After reaching the desired cell density, the cells were harvested by centrifugation, washed in sodium chloride solution (0.9%) and finally also resuspended in the latter. […] As the 100% value, the result of the batch at pH=7.0 was employed. d) Effect of product inhibition on the activity of the N-acyl-L-proline acylase of Arthrobacter sp. HSZ5 cells having N-acyl-L-proline acylase activity were prepared as described under 9a). […] As the 100% value, the results of the batch was employed here which had been incubated without addition of one of the products.

Arthrobacter sp. HSZ5 [3] = experiment: Enzymatic hydrolysis of N-Z-DL-proline by resting cells; format: cell-based; conditions: after 60 minutes; N-Z-DL-proline 50 g/l, OD650=30, 30° C., pH 7.0, HPLC
Experimental: a) Arthrobacter sp. […] The cells were harvested and washed as described previously. The resting cells (OD650=30) were incubated at 30° C. with N-Z-DL-proline (50 g/l) under pH stasis (pH 7.0) and with stirring.

[4] = test system: Agrobacterium/Rhizobium HSZ30; experiment: Growth using N-protected amino acids as the sole N source; format: cell-based; conditions: minimal medium, fructose 5 g/l as C source, N source 5 g/l, 30° C., 120 rpm
Experimental: (§1) Arthrobacter sp. HSZ5, Alcaligenes xylosoxidans ssp. denitrificans HSZ17, Agrobacterium/Rhizobium HSZ30, Bacillus simplex K2, Alcaligenes piechaudii K4 and Pseudomonas putida […] were grown (30° C., 120 rpm) in the medium described in Table 1 using fructose (5 g/l) as the C source. As the sole N source (5 g/l), in each case various N-protected amino acids were added. On reaching a cell density of OD650>0.5, the batch was assessed as positive.

Arthrobacter sp. HSZ5 [5] = experiment: as above; format: cell-based; conditions: minimal medium, fructose 5 g/l as C source, N source 5 g/l, 30° C., 120 rpm
Experimental: as §1

Bacillus simplex K2 = experiment: as above; format: cell-based; conditions: minimal medium, fructose 5 g/l as C source, N source 5 g/l, 30° C., 120 rpm
Experimental: as §1

Pseudomonas putida K32 = experiment: as above; format: cell-based; conditions: minimal medium, fructose 5 g/l as C source, N source 5 g/l, 30° C., 120 rpm
Experimental: as §1

N-acyl-L-proline acylase [6] = experiment: Substrate specificity of N-acyl-L-proline acylase; format: biochemical, Arthrobacter sp. HSZ5
From the text: The enzymes according to the invention, the N-acyl-L-proline acylases, can be obtained, for example, by customary expert disruption of the described microorganism cells, preferably the enzymes are obtained from Arthrobacter sp. HSZ5 (DSM 10329). For this, for example, the ultrasound, French press or lysozyme method can be used. The enzymes are characterized by the following properties:
N-acyl-L-proline acylase, characterized by the following properties:

[7] = test system: Alcaligenes piechaudii K4; experiment: Growth using N-protected amino acids as the sole N source; format: cell-based; conditions: minimal medium, fructose 5 g/l as C source, N source 5 g/l, 30° C., 120 rpm
Experimental: as §1

[8] = test system: Alcaligenes xylosoxidans ssp. denitrificans HSZ17; experiment: as above; format: cell-based; conditions: minimal medium, fructose 5 g/l as C source, N source 5 g/l, 30° C., 120 rpm
Experimental: as §1

Arthrobacter sp. HSZ5 [9] = experiment: Biotransformation of N-Z-DL-proline in 450 l fermenter; format: cell-based; conditions: pH 7.5-8.5, 30° C.
From the text: d) Arthrobacter sp. […] The enzymatic activity was then induced by addition of 4 kg of 50% (w/w) N-Z-DL-proline solution. […] The cells were removed by ultracentrifugation from the 320 kg of culture finally obtained and an aliquot (1444 g) of the cell-free fermentation broth was worked up as described under 6a).

Question: For O=C(O)C1CCCN1C(=O)OCc1ccccc1 (racemic) [N-Z-DL-proline], which “Induction of the enzymatic activity (N-acyl-L-proline acylase)” value (N-acyl-L-proline acylase [1]) is on record?
Answer: The value was “induced the desired enzymatic activity”.

Question: O=C(O)[C@@H]1CCCN1 [L-proline] was tested. Which “Inhibition of the enzymatic activity of N-acyl-L-proline acylase” value (from here on “Inhibition … of N-acyl-L-proline acylase”) [2] did it give?
Answer: Its value is “no inhibition of the enzymatic activity at all even in high concentration”.

Question: Which “Inhibition … of N-acyl-L-proline acylase” value [2] does the source give for O=C(O)[C@H]1CCCN1C(=O)OCc1ccccc1 [N-Z-D-proline, N-benzyloxycarbonyl-D-proline] here?
Answer: The value was “drastic lowering of the enzyme activity with increasing concentration”.

Question: What about the “Inhibition … of N-acyl-L-proline acylase” value ([2]; listed as N-benzyloxycarbonyl-D-proline) of the same molecule?
Answer: Its value is “inhibitory action”.

Question: What about the Manner of inhibition [2] of the same molecule?
Answer: Its Manner of inhibition is “competitive inhibitor”.

Question: And the “Hydrolysis by resting cells” value (Arthrobacter sp. HSZ5 [3])?
Answer: The value was “unchanged”.

Question: Which results are given for C[C@H](NC(=O)OCc1ccccc1)C(=O)O [N-Z-L-alanine, N-benzyloxycarbonyl-L-alanine]?
Answer: Growth using N-protected amino acid as the sole N source [4]: + (On reaching a cell density of OD650>0.5, the batch was assessed as positive); Growth using N-protected amino acid as the sole N source (Arthrobacter sp. HSZ5 [5]): + (On reaching a cell density of OD650>0.5, the batch was assessed as positive); Growth using N-protected amino acid as the sole N source (Bacillus simplex K2): + (On reaching a cell density of OD650>0.5, the batch was assessed as positive); Growth using N-protected amino acid as the sole N source (Pseudomonas putida K32): + (On reaching a cell density of OD650>0.5, the batch was assessed as positive); Substrate specificity (hydrolysis by the enzyme) (N-acyl-L-proline acylase [6]): hydrolysed

Question: Which results are given for O=C(O)[C@@H]1CCCN1C(=O)OCc1ccccc1 [N-Z-L-proline, N-benzyloxycarbonyl-L-proline]?
Answer: Growth using N-protected amino acid as the sole N source [4]: + (On reaching a cell density of OD650>0.5, the batch was assessed as positive); Growth using N-protected amino acid as the sole N source [7]: + (On reaching a cell density of OD650>0.5, the batch was assessed as positive); Growth using N-protected amino acid as the sole N source [8]: + (On reaching a cell density of OD650>0.5, the batch was assessed as positive); Growth using N-protected amino acid as the sole N source (Arthrobacter sp. HSZ5 [5]): + (On reaching a cell density of OD650>0.5, the batch was assessed as positive); Growth using N-protected amino acid as the sole N source (Bacillus simplex K2): + (On reaching a cell density of OD650>0.5, the batch was assessed as positive); Growth using N-protected amino acid as the sole N source (Pseudomonas putida K32): + (On reaching a cell density of OD650>0.5, the batch was assessed as positive); Induction of the enzymatic activity (N-acyl-L-proline acylase) (N-acyl-L-proline acylase [1]): induced the desired enzymatic activity; Acceptance as substrate by induced resting cells (N-acyl-L-proline acylase [1]; resting cells, tested against N-Z-L-proline and N-Z-D-proline): accepted as the substrate; Hydrolysis by resting cells (Arthrobacter sp. HSZ5 [3]): almost completely hydrolysed; Maximal rate of hydrolysis (Arthrobacter sp. HSZ5 [9]): about 12 g of N-Z-L-proline hydrolysed/l×h

Question: O=C(O)[C@@H]1CCC(=O)N1C(=O)OCc1ccccc1 [N-Z-L-pyroglutamate, N-benzyloxycarbonyl-L-pyroglutamate] was tested. Which “Growth using N-protected amino acid as the sole N source” value (“Growth using N-protected amino acid” below) [4] did it give?
Answer: The value was “+ (On reaching a cell density of OD650>0.5, the batch was assessed as positive)”.

Question: What about the “Growth using N-protected amino acid” value [7] of the same molecule?
Answer: Its value is “+ (On reaching a cell density of OD650>0.5, the batch was assessed as positive)”.

Question: And the “Growth using N-protected amino acid” value [8]?
Answer: The value was “+ (On reaching a cell density of OD650>0.5, the batch was assessed as positive)”.

Question: What about the “Growth using N-protected amino acid” value (Arthrobacter sp. HSZ5 [5]) of the same molecule?
Answer: The value was “+ (On reaching a cell density of OD650>0.5, the batch was assessed as positive)”.

Question: What about the “Growth using N-protected amino acid” value (Bacillus simplex K2) of the same molecule?
Answer: Its value is “+ (On reaching a cell density of OD650>0.5, the batch was assessed as positive)”.

Question: And the “Growth using N-protected amino acid” value (Pseudomonas putida K32)?
Answer: Its value is “+ (On reaching a cell density of OD650>0.5, the batch was assessed as positive)”.

Question: Which “Growth using N-protected amino acid” value (Arthrobacter sp. HSZ5 [5]) does the source give for O=C(N[C@@H](CO)C(=O)O)OCc1ccccc1 [N-Z-L-serine] here?
Answer: The value was “+ (On reaching a cell density of OD650>0.5, the batch was assessed as positive)”.

Question: What about the “Growth using N-protected amino acid” value (Pseudomonas putida K32) of the same molecule?
Answer: Its value is “+ (On reaching a cell density of OD650>0.5, the batch was assessed as positive)”.

Question: With CN(CC(=O)O)C(=O)OCc1ccccc1 [N-Z-sarcosine] as the molecule, how does the “Growth using N-protected amino acid” value (Arthrobacter sp. HSZ5 [5]) read?
Answer: The value was “+ (On reaching a cell density of OD650>0.5, the batch was assessed as positive)”.

Question: What does the source list for CC(=O)N1CCC[C@H]1C(=O)O [N-acetyl-L-proline]?
Answer: Growth using N-protected amino acid as the sole N source [4]: + (On reaching a cell density of OD650>0.5, the batch was assessed as positive); Growth using N-protected amino acid as the sole N source [8]: + (On reaching a cell density of OD650>0.5, the batch was assessed as positive); Growth using N-protected amino acid as the sole N source (Arthrobacter sp. HSZ5 [5]): + (On reaching a cell density of OD650>0.5, the batch was assessed as positive); Growth using N-protected amino acid as the sole N source (Pseudomonas putida K32): + (On reaching a cell density of OD650>0.5, the batch was assessed as positive)

Question: O=C(O)[C@@H]1CCCN1C(=O)c1ccccc1 [N-benzoyl-L-proline] was tested. Which “Growth using N-protected amino acid” value (Arthrobacter sp. HSZ5 [5]) did it give?
Answer: Its value is “+ (On reaching a cell density of OD650>0.5, the batch was assessed as positive)”.

Question: What about the “Growth using N-protected amino acid” value (Pseudomonas putida K32) of the same molecule?
Answer: The value was “+ (On reaching a cell density of OD650>0.5, the batch was assessed as positive)”.

Question: With CC(C)COC(=O)N1CCC[C@H]1C(=O)O [N-isobutoxycarbonyl-L-proline] as the molecule, how does the “Growth using N-protected amino acid” value [7] read?
Answer: Its value is “+ (On reaching a cell density of OD650>0.5, the batch was assessed as positive)”.

Question: What about the “Growth using N-protected amino acid” value (Arthrobacter sp. HSZ5 [5]) of the same molecule?
Answer: Its value is “+ (On reaching a cell density of OD650>0.5, the batch was assessed as positive)”.

Question: And the “Growth using N-protected amino acid” value (Pseudomonas putida K32)?
Answer: The value was “+ (On reaching a cell density of OD650>0.5, the batch was assessed as positive)”.

Question: How did the “Growth using N-protected amino acid” value [7] turn out when O=C(O)[C@@H]1CCCN1C(=O)Cc1ccccc1 [N-phenylacetyl-L-proline] was run?
Answer: The value was “+ (On reaching a cell density of OD650>0.5, the batch was assessed as positive)”.

Question: What about the “Growth using N-protected amino acid” value (Arthrobacter sp. HSZ5 [5]) of the same molecule?
Answer: The value was “+ (On reaching a cell density of OD650>0.5, the batch was assessed as positive)”.

Question: How did the “Growth using N-protected amino acid” value (Pseudomonas putida K32) turn out when O=C(O)CCC(=O)N1CCC[C@H]1C(=O)O [N-succinyl-L-proline] was run?
Answer: Its value is “+ (On reaching a cell density of OD650>0.5, the batch was assessed as positive)”.

Question: OCc1ccccc1 [benzyl alcohol] was tested. Which “Inhibition … of N-acyl-L-proline acylase” value [2] did it give?
Answer: The value was “drastic lowering of the enzyme activity with increasing concentration; also recorded: inhibitory action”.

Question: And the Manner of inhibition [2]?
Answer: Its Manner of inhibition is “non-competitive”.
